These results are taken from PubChem BioAssay (NCI).

Assay in all cases: growth of human tumour cells (NCI), 48 h
Assay [1] has as its system NCI-H460 lung.
The subject of assay [2] is TK-10 renal.
Assay [3] has as its system BT-549 breast.
In assay [4] the test system is SF-268 CNS.
In assay [5] the test system is SK-MEL-5 melanoma.
Assay [6] has as its system EKVX NSCLC.
In assay [7] the test system is LOX IMVI melanoma.
Assay [8] relates to SN12C renal.

Several values for one entry are separate records, joined by “and”; a condition that tells them apart may be missing. Equal values may be shown once.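 Test compounds were applied to cells in 96-well plates for 48 hours at 5 doses. GI50 = concentration required for 50% inhibition of growth. TGI is the concentration that stops growth completely.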 A value given as a limit tells only on which side of the number the result lay.

As to `COc1cc(-c2c(C#N)c(N)nc(N3CCOCC3)c2C#N)cc(OC)c1OC`, the GI50 in assay [1], in assay [2], in assay [3], in assay [4], in assay [5] and in assay [6] was above 100 µM throughout. The GI50 in assay [7] was 79.7 µM; in assay [8], above 100 µM. Moreover, the TGI in assay [1], in assay [2], in assay [3], in assay [4], in assay [5] and in assay [6] was above 100 µM each time. The TGI in assay [7] and in assay [8] was above 100 µM each time.

As for `Cc1c(O)c2c(c(O)c1Br)C(=O)C=CC2=O`, the TGI in assay [1] is 2.74 µM; in assay [2] it was 2.55 µM and 1.15 µM; in assay [3] it was 1.3 µM; in assay [4], 4.63 µM and 6.51 µM; in assay [5], 0.974 µM and 1.78 µM; in assay [6], 5.21 µM. In addition, the TGI in assay [7] was 1.54 µM and 0.703 µM; in assay [8], 2.73 µM. In addition, the GI50 in assay [2] was 0.343 µM; in assay [7] it was 0.215 µM.

With `COc1ccc(C2=NN(C(=O)c3cc(OC)c(OC)c(OC)c3)C(c3ccc(N(C)C)cc3)C2)cc1` (stereo unspecified), the GI50 in assay [1] was 0.397 µM; in assay [2] it was 0.682 µM; in assay [3], 1.58 µM; in assay [4] it was 0.736 µM; in assay [5], 0.424 µM; in assay [6], 1.43 µM. Further, the values for the GI50 in assay [7] and in assay [8] were 0.549 µM and 2.6 µM, respectively. Besides, the TGI in assay [2] was above 100 µM; in assay [3], above 100 µM; in assay [4], above 100 µM; in assay [5], 4.88 µM; in assay [6], above 100 µM; in assay [7], above 100 µM. Also, the TGI in assay [8] was above 100 µM.

As to `CCOc1cccc(-c2nc(N)nc(Nc3ccccc3SSc3ccccc3Nc3nc(N)nc(-c4cccc(OCC)c4)n3)n2)c1`, the GI50 is 3.03 µM in assay [1]; 6.26 µM in assay [2]; 4.97 µM in assay [3]; 3.84 µM in assay [4]; 6.8 µM in assay [5]; 3.56 µM in assay [6]. The values for the GI50 in assay [7] and in assay [8] were 1.51 µM and 2.32 µM, respectively. The TGI is above 100 µM in assay [1]; 86.8 µM in assay [2]; above 100 µM in assay [3]; above 100 µM in assay [4]; above 100 µM in assay [5]; above 100 µM in assay [6]. For the same molecule, the TGI came to 3.22 µM in assay [7] and 14.8 µM in assay [8].

Consider `COc1cc2c(cc1Nc1nc(Nc3cccc(F)c3C(N)=O)c3cc[nH]c3n1)N(C(=O)CN1CCN(C(C)C)CC1)CC2`, for which the GI50 was 3.36 µM in assay [1]; 2.97 µM in assay [2]; 3.95 µM in assay [3]; 3.98 µM in assay [4]; 1.26 µM in assay [5]; 3.08 µM in assay [6]. Moreover, the results for the GI50 in assay [7] and in assay [8] were 3.49 µM and 4.66 µM, respectively. Also, the TGI in assay [1] amounted to 7 µM; in assay [2], 7.55 µM; in assay [3], 7.54 µM; in assay [4], 8.34 µM; in assay [5] it was 2.56 µM; in assay [6], 7.13 µM. Also, the TGI in assay [7] amounted to 7.03 µM; in assay [8], 10.5 µM.

Regarding `CCCCCCCCC(=O)OCC(CS[As](C)C)OC(=O)CCCCCCCC` (stereo unspecified), the GI50 was 21.7 µM in assay [1]; 0.364 µM in assay [2]; 4.78 µM in assay [3]; 3.53 µM in assay [4]; 0.163 µM in assay [5]; 2.45 µM in assay [6]. Further, the GI50 in assay [7] was 1.09 µM; in assay [8], 2.08 µM. Further, the TGI stood at 58.3 µM in assay [1]; 3.14 µM in assay [2]; 19.1 µM in assay [3]; 25.9 µM in assay [4]; 0.388 µM in assay [5]; 19 µM in assay [6]. In addition, the TGI in assay [7] amounted to 5.7 µM; in assay [8] it was 12.6 µM.

On to `CCN1Cc2nc3sc(C)c(C)c3c(=O)n2C=C1C`, for which the GI50 in assay [1] was 40.6 µM; in assay [2], 15.1 µM; in assay [3], 7.36 µM; in assay [4] it was 5.41 µM; in assay [5], 5.87 µM; in assay [6], 21.8 µM. In addition, the results for the GI50 in assay [7] and in assay [8] were 4.64 µM and 13.8 µM, respectively. The TGI in assay [1] was above 100 µM; in assay [2], 83.4 µM; in assay [3] it was 92.1 µM; in assay [4], 36.2 µM; in assay [5], 51.8 µM; in assay [6], above 100 µM. For the same molecule, the TGI came out at 17.1 µM in assay [7] and 62.1 µM in assay [8].

As to `COC1=CC(c2ccc[nH]2)=N/C1=C\c1[nH]c(C)c(C(=O)CCCCC(=O)Oc2ccc3c(c2)CCC2C3CC[C@]3(C)[C@@H](O)CC[C@@H]23)c1C` (stereo partly specified), the GI50 in assay [1] was 5.71 µM; in assay [2], 33.8 µM; in assay [3], 4.39 µM; in assay [4] it was above 100 µM; in assay [5], 3.63 µM; in assay [8], above 100 µM. The TGI in assay [1], in assay [2], in assay [3], in assay [4], in assay [5] and in assay [8] was above 100 µM in each case.

As to `COc1cc(/C=C2\C[C@H]3[C@@H]4CC=C5C[C@@H](O)CC[C@]5(C)[C@H]4CC[C@]3(C)[C@H]2O)ccc1OCCCn1ccnc1`, the GI50 in assay [1] is 1.52 µM; in assay [2], 0.738 µM; in assay [4] it was 3.82 µM; in assay [5] it was 4.15 µM; in assay [6] it was 6.06 µM; in assay [7] it was 0.988 µM. Besides, in assay [8], the GI50 was 2.73 µM. The TGI was 5.11 µM in assay [1]; 2.09 µM in assay [2]; 19.2 µM in assay [4]; 12.4 µM in assay [5]; above 50 µM in assay [6]; 2.01 µM in assay [7]. Moreover, the TGI in assay [8] worked out at 13.2 µM.
